# Experimental data as given in patent US12404283B2, “c-MYC mRNA translation modulators and uses thereof in the treatment of cancer” (Anima Biotech Inc., priority 2022, dated 2025).
# System: c-Myc
# Assay: c-Myc immunofluorescence assay
# Format: cell-based, human
# Settings: A549 cells, 24 hours treatment, anti-c-Myc immunofluorescence
# Outline: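 High-content imaging (20×) of PFA-fixed A549 cells immunostained for c-Myc with DAPI nuclei, after 24 h compound treatment at increasing concentrations. Per-cell c-Myc signal in identified cell regions was plotted against dose and fitted by logistic regression to give EC50.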
row,SMILES,Myc Efficacy (−LogEC50)
1,"CNC(=O)c1ccc(-c2cn3c(n2)sc2cc(C(=O)N[C@H]4[C@H]5CN[C@@H]4C5)ccc23)cc1 [compound 238, N-((1R,4R,5S)-2-azabicyclo[2.1.1]hexan-5-(methylcarbamoyl)phenyl) benzo[d]imidazo[2,1-b]thiazole-7-carboxamide]",− (− ≤3)
2,"CNC(=O)c1ccc(-c2cn3c(n2)sc2cc(C(=O)NCCCN4CCCC4)ccc23)cc1 [compound 310, 2-(4-(methylcarbamoyl)phenyl)-N-(3-(pyrrolidin-1-yl)propyl)benzo[d]imidazo [2,1-b]thiazole-7-carboxamide]",+ (+ >3 and <5)
3,"CNC(=O)c1ccc(-c2cn3c(n2)sc2cc(C(=O)NC4CC(N(C)C)C4)ccc23)cc1 (stereo not shown) [compound 269, N-(3-(dimethylamino)cyclobutyl)-2-(4-(methylcarbamoyl)phenyl) benzo[d]imidazo[2,1-b]thiazole-7-carboxamide]",+ (+ >3 and <5)
4,"CCN(CCCN(C)C(=O)c1ccc2c(c1)sc1nc(-c3cccc(C)c3)cn12)CC(F)(F)F [compound 193, N-(3-(ethyl(2,2,2-trifluoroethyl)amino)propyl) N-methyl-2-(m-tolyl)benzo[d]imidazo[2,1-b]thiazole-7-carboxamide]",+ (+ >3 and <5)
5,"CNC(=O)c1ccc(-c2cn3c(n2)sc2cc(C(=O)N[C@H]4CCCNC4)ccc23)cc1 [compound 227, (S)-2-(4-(methylcarbamoyl)phenyl)-N-(piperidin-3-yl)benzo[d] imidazo[2,1-b]thiazole-7-carboxamide]",++ (++ ≥5 and <6)
6,"CNC(=O)c1ccc(-c2cn3c(n2)sc2cc(C(=O)NC4(CO)CCOCC4)ccc23)cc1 [compound 237, N-(4-(hydroxymethyl)tetrahydro-2H-pyran-4-yl)-2-(4-(methylcarbamoyl)phenyl) benzo[d]imidazo[2,1-b]thiazole-7-carboxamide]",− (− ≤3)
7,"CN1CCC(NC(=O)c2ccc3c(c2)sc2nc(-c4ccc([C@@H]5C[C@H](O)CN5)cc4F)cn23)CC1 [Compound 522S, 2-(2-fluoro-4-((2S,4S)-4-hydroxypyrrolidin-2-yl)phenyl)-N-(1-methylpiperidin-4-yl)benzo[d]imidazo[2,1-b]thiazole-7-carboxamide]",+++ (+++ ≥6)
8,"CN1CCC(NC(=O)c2ccc3c(c2)sc2nc(-c4ccc(C5CCNCC5)cc4F)cn23)CC1 [compound 527, 2-(2-fluoro-4-(piperidin-4-yl)phenyl)-N-(1-methylpiperidin-4-yl)benzo[d]imidazo[2,1-b]thiazole-7-carboxamide]",+++ (+++ ≥6)
9,"O=C(NC1CCOCC1)c1ccc2c(c1)sc1nc(-c3ccc(C4COCCN4)cc3F)cn12 (stereo not shown) [Compound 534, 2-(2-fluoro-4-(morpholin-3-yl)phenyl)-N-(tetrahydro-2H-pyran-4-yl)benzo[d]imidazo[2,1-b]thiazole-7-carboxamide]",+++ (+++ ≥6)
10,"CNC(=O)c1ccc(-c2cn3c(n2)sc2cc(NC(=O)C4CCNCC4)ccc23)c(F)c1 [compound 364, N-(2-(2-fluoro-4-(methylcarbamoyl)phenyl)benzo[d]imidazo[2,1-b]thiazol-7-yl)piperidine-4-carboxamide]",++ (++ ≥5 and <6)
11,"CCN1CCC[C@@H]1CNC(=O)c1ccc2c(c1)sc1nc(-c3ccc(C(=O)NC)cc3)cn12 [compound 214, (R)-N-((1-ethylpyrrolidin-2-yl)methyl)-2-(4-(methylcarbamoyl)phenyl) benzo[d]imidazo[2,1-b]thiazole-7-carboxamide]",+ (+ >3 and <5)
12,"CCN(CC)CCCNC(=O)c1ccc2c(c1)sc1nc(-c3ccc(CNC4CC4)cc3F)nn12 [compound 395, 2-(4-((cyclopropylamino)methyl)-2-fluorophenyl)-N-(3-(diethylamino)propyl)benzo [4,5]thiazolo[3,2-b][1,2,4]triazole-6-carboxamide]",++ (++ ≥5 and <6)
13,"CCN1CCC(CNC(=O)c2ccc3c(c2)sc2nc(-c4ccc(C(=O)NC)cc4)cn23)CC1 [compound 215, N-((1-ethylpiperidin-4-yl)methyl)-2-(4-(methylcarbamoyl)phenyl) benzo[d]imidazo[2,1-b]thiazole-7-carboxamide]",− (− ≤3)
14,"CNC(=O)c1ccc(-c2cn3c(n2)sc2cc(C(=O)NCC(=O)NCC(F)(F)F)ccc23)cc1 [compound 255, 2-(4-(methylcarbamoyl)phenyl)-N-(2-oxo-2-((2,2,2-trifluoroethyl)amino)ethyl) benzo[d]imidazo[2,1-b]thiazole-7-carboxamide]",− (− ≤3)
15,"NCc1ccc(-c2cn3c(n2)sc2cc(C(=O)NCCCN4CCCCC4)ccc23)c(C2CC2)c1 [compound 370, 2-(4-(aminomethyl)-2-cyclopropylphenyl)-N-(3-(piperidin-1-yl)propyl)benzo[d]imidazo [2,1-b]thiazole-7-carboxamide]",+++ (+++ ≥6)
16,"CCN(CC)CCCNC(=O)c1ccc2c(c1)sc1nc(-c3ccc(CNC4CC4)cc3)nn12 [compound 394, 2-(4-((cyclopropylamino)methyl)phenyl)-N-(3-(diethylamino)propyl)benzo [4,5]thiazolo[3,2-b][1,2,4]triazole-6-carboxamide]",++ (++ ≥5 and <6)

row,SMILES,Myc Efficacy (−LogEC50)
1,"O=C(NCCCN1CCC(F)CC1)c1ccc2c(c1)sc1nc(-c3ccc(C4CCCN4)c(F)c3)cn12 (stereo not shown) [Compound 484, 2-(3-fluoro-4-(pyrrolidin-2-yl)phenyl)-N-(3-(4-fluoropiperidin-1-yl)propyl)benzo[d]imidazo[2,1-b]thiazole-7-carboxamide]",+++ (+++ ≥6)
2,"NC(=O)c1ccc2c(c1)sc1nc(-c3ccc([C@@H]4C[C@H](O)CN4)cc3F)cn12 [compound 520, 2-(2-fluoro-4-((2S,4S)-4-hydroxypyrrolidin-2-yl)phenyl)benzo[d]imidazo[2,1-b]thiazole-7-carboxamide]",++ (++ ≥5 and <6)
3,"CNC(=O)c1ccc(-c2cn3c(n2)sc2cc(C(=O)NC4CC4OC)ccc23)cc1 (stereo not shown) [compound 240, N-(2-methoxycyclopropyl)-2-(4-(methylcarbamoyl)phenyl) benzo[d]imidazo[2,1-b] thiazole-7-carboxamide]",+ (+ >3 and <5)
4,"CN1CCC(NC(=O)c2ccc3c(c2)sc2nc(-c4ccc([C@H]5CCCN5)cc4F)cn23)CC1 [Compound 503R, (R)-2-(2-fluoro-4-(pyrrolidin-2-yl)phenyl)-N-(1-methylpiperidin-4-yl)benzo[d]imidazo[2,1-b]thiazole-7-carboxamide]",+++ (+++ ≥6)
5,"O=C(NCCCN1CCC(F)CC1)c1ccc2c(c1)sc1nc(-c3ccc([C@H]4CCNC4)cc3F)cn12 [Compound 434R, (R)-2-(2-fluoro-4-(pyrrolidin-3-yl)phenyl)-N-(3-(4-fluoropiperidin-1-yl)propyl)benzo[d]imidazo[2,1-b]thiazole-7-carboxamide]",+++ (+++ ≥6)
6,"CCN(CC)CCCNC(=O)c1ccc2c(c1)sc1nc(-c3ccc(C#N)cc3)cn12 [compound 160, 2-(4-cyanophenyl)-N-(3-(diethylamino)propyl)benzo [d]imidazo[2,1-b]thiazole-7-carboxamide]",+ (+ >3 and <5)
7,"CNC(=O)c1ccc(-c2cn3c(n2)sc2cc(C(=O)NC[C@H]4CC[C@H](O)CC4)ccc23)cc1 [compound 273, N-(((1r,4r)-4-hydroxycyclohexyl)methyl)-2-(4-(methylcarbamoyl)phenyl) benzo[d]imidazo[2,1-b]thiazole-7-carboxamide]",− (− ≤3)
8,"CCN(CC)CCCNC(=O)c1ccc2c(c1)sc1nc(-c3ccc(C4(N)CC4)cc3)cn12 [compound 318, 2-(4-(1-aminocyclopropyl)phenyl)-N-(3-(diethylamino)propyl)benzo [d]imidazo[2,1-b]thiazole-7-carboxamide]",++ (++ ≥5 and <6)
9,"CNC(=O)c1ccc(-c2cn3c(n2)sc2cc(C(=O)NC(C)Cn4cccn4)ccc23)cc1 (stereo not shown) [compound 221, N-(1-(1H-pyrazol-1-yl)propan-2-yl)-2-(4-(methylcarbamoyl)phenyl) benzo[d]imidazo[2,1-b]thiazole-7-carboxamide]",+ (+ >3 and <5)
10,"O=C(NCCCN1CCC(F)CC1)c1cc2sc3nc(-c4ccc([C@H]5CCCN5)cc4F)cn3c2cn1 [Compound 509R, (R)-2-(2-fluoro-4-(pyrrolidin-2-yl)phenyl)-N-(3-(4-fluoropiperidin-1-yl)propyl)imidazo[2′,1′:2,3]thiazolo[4,5-c]pyridine-7-carboxamide]",+++ (+++ ≥6)
11,"CCN(CC)CCCNC(=O)c1ccc2c(c1)sc1nc(-c3ccc(C(=O)O)cc3)cn12 [compound 172, 4-(7-((3-(diethylamino)propyl)carbamoyl)benzo[d]imidazo [2,1-b]thiazol-2-yl)benzoic acid]",− (− ≤3)
12,"CCN(CC)CCCNC(=O)c1ccc2c(c1)sc1nc(-c3cccc(C#N)c3)cn12 [compound 145, 2-(3-cyanophenyl)-N-(3-(diethylamino)propyl)benzo [d]imidazo[2,1-b]thiazole-7-carboxamide]",++ (++ ≥5 and <6)
13,"CNC(=O)c1ccc(-c2cn3c(n2)sc2cc(C(=O)N[C@H]4C[C@@H](OC)C4)ccc23)cc1 [compound 245, N-((1s,3s)-3-methoxycyclobutyl)-2-(4-(methylcarbamoyl)phenyl) benzo[d]imidazo[2,1-b] thiazole-7-carboxamide]",− (− ≤3)
14,"CNC(=O)c1ccc(-c2cn3c(n2)sc2cc(C(=O)NCC4CCN(C)C4)ccc23)cc1 (stereo not shown) [compound 176, 2-(4-(methylcarbamoyl)phenyl)-N-((1-methylpyrrolidin-3-yl)methyl)benzo[d]imidazo [2,1-b]thiazole-7-carboxamide]",− (− ≤3)
15,"NCc1ccc(-c2cn3c(n2)sc2cc(C(=O)NCCCN4CCCCC4)ccc23)c(F)c1 [compound 374, 2-(4-(aminomethyl)-2-fluorophenyl)-N-(3-(piperidin-1-yl)propyl)benzo[d]imidazo [2,1-b]thiazole-7-carboxamide]",+++ (+++ ≥6)
